Test results taken from PMC8163982, “Partial agonism improves the anti-hyperglycaemic efficacy of an oxyntomodulin-derived GLP-1R/GCGR co-agonist” (Molecular Metabolism, 2021).
Where a SMILES comes first, the peptide text is derived from it. [ ]: non-standard residue; d: D form. Aib = CC(C)(N)C(=O)O

What was measured:
GLP-1R = GLP-1R (Homo sapiens, UniProt P43220); test: NanoBiT β-arrestin-2 recruitment to GLP-1R-SmBiT in HEK293T cells; assay type: cell-based; conditions: SRB103 pair, mean ± SEM, n = 6; for Emax: HEK-293T, normalised to full agonist response, read-out: GLP-1R βarr2 (HEK293T) Emax; for EC50: 3-parameter fit, read-out: GLP-1R βarr2 (HEK293T) pEC50 (converted)
Method: The assay was performed as previously described. […] (gifts from Professor Nevin Lambert, Medical College of Georgia) or 0.05 μg of GLP-1R-SmBiT and 0.05 μg of LgBiT-β-arrestin-2 (Promega) plus 0.9 μg of pcDNA3.1 for 24 h. The cells were detached with EDTA, resuspended in HBSS, and furimazine (Promega) was added at a 1:50 dilution from the manufacturer's pre-prepared stock. After dispensing into 96-well white plates, a baseline read of the luminescent signals was serially recorded for 5 min using a FlexStation 3 instrument at 37 °C before the indicated concentration of ligand was added, after which the signals were repeatedly recorded for 30 min. […] Bias was calculated using two approaches. First, the log max/EC50 method was used, with the ratio of Emax to EC50 from 3-parameter fits for each ligand used to quantify agonism. After log10 transformation, responses were expressed relative to the reference agonist on a per assay basis to obtain Δlog(Emax/EC50) for each pathway. Pathway-specific values were then expressed relative to each other to obtain ΔΔlog(Emax/EC50), that is, the log bias factor. Second, a method derived from kinetic curve fitting was used. Here, kinetic responses for a single maximal agonist concentration were normalised at each time point to the vehicle response prior to curve fitting. Mini-Gs responses were fitted using the one-phase exponential association equation in Prism 8.0. β-arrestin-2 responses were fitted using the biexponential equation described in [29]. […] Pathway-specific values were then expressed relative to each other to obtain ΔΔlog kτ , that is, the log bias factor.

human GIPR = target: T1, human GIPR (Homo sapiens, UniProt P48546); test: cAMP production (HTRF) in PathHunter CHO-K1 cells expressing GIPR; assay type: cell-based; conditions: 30 min, mean ± SEM, n = 6; for EC50: 37 °C, serum-free medium, no phosphodiesterase inhibitors, read-out: GIPR CAMP (CHO–K1) pEC50 (converted); for Emax: CHO-K1, normalised to globally fitted maximum response
T1 construct: host or cells: PathHunter CHO-K1-βarr2-EA
T1 sequence (P48546 22-466): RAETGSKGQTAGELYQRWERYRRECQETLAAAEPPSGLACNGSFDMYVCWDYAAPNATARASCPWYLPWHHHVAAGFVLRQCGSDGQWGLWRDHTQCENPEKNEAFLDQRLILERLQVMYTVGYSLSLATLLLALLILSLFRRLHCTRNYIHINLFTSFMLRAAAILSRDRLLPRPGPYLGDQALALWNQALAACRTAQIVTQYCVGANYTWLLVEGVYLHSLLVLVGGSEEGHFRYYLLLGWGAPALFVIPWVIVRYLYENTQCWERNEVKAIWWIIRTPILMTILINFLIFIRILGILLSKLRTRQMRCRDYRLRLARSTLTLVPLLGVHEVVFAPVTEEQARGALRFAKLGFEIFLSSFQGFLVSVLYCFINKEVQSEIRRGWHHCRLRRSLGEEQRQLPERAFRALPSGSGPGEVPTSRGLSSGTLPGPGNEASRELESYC
Method: HEK293T cells were maintained in DMEM supplemented with 10% FBS and 1% penicillin/streptomycin. PathHunter CHO–K1-βarr2-EA cells stably expressing human GLP-1R, GCGR, or GIPR and PathHunter CHO–K1-βarr1-EA cells stably expressing GCGR were obtained from DiscoverX and maintained in Ham's F12 medium with 10% FBS and 1% penicillin/streptomycin. Stable HEK293-SNAP-GLP-1R cells were maintained in DMEM supplemented with 10% FBS, 1% penicillin/streptomycin, and 1 mg/ml of G418. INS-1 832/3 cells, a gift from Professor Chris Newgard (Duke University), were maintained in RPMI with 11 mM of glucose supplemented with 10% FBS, 10 mM of HEPES, 1 mM of pyruvate, 50 μM of β-mercaptoethanol, and 1% penicillin/streptomycin. Huh7 cells stably expressing human GCGR (Huh7-GCGR) were maintained in DMEM supplemented with 10% FBS, 1 mg/ml of G418, and 1% penicillin/streptomycin.
PathHunter cells were stimulated with the indicated concentration of agonist for 30 min at 37 °C in serum-free medium without phosphodiesterase inhibitors. INS-1 832/3 cells were stimulated with the indicated concentration of agonist for 10 min at 37 °C in serum-free medium with 100 μM of 3-isobutyl-1-methylxanthine (IBMX). Primary dispersed mouse islet cells prepared by triturating intact islets in 0.05% trypsin/EDTA for 3 min at 37 °C were stimulated with the indicated concentration of agonist for 5 min at 37 °C in serum-free medium with 11 mM of glucose and 500 μM of IBMX. Primary mouse hepatocytes were stimulated in serum-free medium with 100 μM of IBMX for 10 min or 16 h in serum-free medium with 100 μM of IBMX added for the final 10 min of incubation. Huh7-GCGR cells were stimulated in serum-free medium without phosphodiesterase inhibitors for 10 min or for 16 h in serum-free medium. Where relevant, forskolin (10 μM) was added as a positive or normalisation control. At the end of each incubation, cAMP was then assayed by HTRF (Cisbio cAMP Dynamic 2) and concentration-response curves were constructed with 3-parameter curve fitting using Prism 8.0.

recombinant DPP-4 = target: T2, recombinant DPP-4 (Homo sapiens, UniProt P27487); test: DPP-4 peptide degradation assay; assay type: in vitro ADME; conditions: 10 nmol peptide in 750 μl 100 mM Tris–HCl pH 8, 10 mU recombinant DPP-4, 37 °C, 1 or 24 h, intact peptide by RP-HPLC (C18), UV 214 nm, vs no-enzyme control, n = 3
T2 construct: purchased R&D Systems
Method: Then, 10 mU of recombinant DPP-4 (R&D Systems) or no enzyme as a control for non-enzymatic degradation over the same time period was added to the reconstituted peptide. Reactions were incubated at 37 °C and 120 μl samples were collected from the reaction vessel at the indicated time points. Then, 5 μl of 10% trifluoroacetic acid (TFA) was added to each sample to terminate enzyme activity. The samples were analysed by reverse-phase high-performance liquid chromatography (HPLC) with a linear acetonitrile/water gradient acidified with 0.1% TFA on Phenomenex Aeris Peptide 3.6 μm XB-C18 columns (150 × 4.6 mm). The eluted peptides were detected at 214 nm. Peptide degradation was calculated by comparing the area under the peak of the original compound with and without enzyme.

GLP-1R, sequence (P43220 24-463): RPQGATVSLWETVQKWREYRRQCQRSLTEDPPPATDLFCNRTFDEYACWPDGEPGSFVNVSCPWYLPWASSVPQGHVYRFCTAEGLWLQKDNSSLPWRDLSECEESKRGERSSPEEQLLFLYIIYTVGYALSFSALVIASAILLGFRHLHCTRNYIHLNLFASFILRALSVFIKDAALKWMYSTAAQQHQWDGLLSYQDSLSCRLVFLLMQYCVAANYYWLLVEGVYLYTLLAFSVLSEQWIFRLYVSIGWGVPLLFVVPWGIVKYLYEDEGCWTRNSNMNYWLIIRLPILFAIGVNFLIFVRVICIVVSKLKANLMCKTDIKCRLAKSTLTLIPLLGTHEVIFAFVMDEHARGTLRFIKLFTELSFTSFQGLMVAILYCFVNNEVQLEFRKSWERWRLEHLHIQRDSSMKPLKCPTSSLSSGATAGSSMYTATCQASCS
T2 sequence (P27487 whole entry, species assumed): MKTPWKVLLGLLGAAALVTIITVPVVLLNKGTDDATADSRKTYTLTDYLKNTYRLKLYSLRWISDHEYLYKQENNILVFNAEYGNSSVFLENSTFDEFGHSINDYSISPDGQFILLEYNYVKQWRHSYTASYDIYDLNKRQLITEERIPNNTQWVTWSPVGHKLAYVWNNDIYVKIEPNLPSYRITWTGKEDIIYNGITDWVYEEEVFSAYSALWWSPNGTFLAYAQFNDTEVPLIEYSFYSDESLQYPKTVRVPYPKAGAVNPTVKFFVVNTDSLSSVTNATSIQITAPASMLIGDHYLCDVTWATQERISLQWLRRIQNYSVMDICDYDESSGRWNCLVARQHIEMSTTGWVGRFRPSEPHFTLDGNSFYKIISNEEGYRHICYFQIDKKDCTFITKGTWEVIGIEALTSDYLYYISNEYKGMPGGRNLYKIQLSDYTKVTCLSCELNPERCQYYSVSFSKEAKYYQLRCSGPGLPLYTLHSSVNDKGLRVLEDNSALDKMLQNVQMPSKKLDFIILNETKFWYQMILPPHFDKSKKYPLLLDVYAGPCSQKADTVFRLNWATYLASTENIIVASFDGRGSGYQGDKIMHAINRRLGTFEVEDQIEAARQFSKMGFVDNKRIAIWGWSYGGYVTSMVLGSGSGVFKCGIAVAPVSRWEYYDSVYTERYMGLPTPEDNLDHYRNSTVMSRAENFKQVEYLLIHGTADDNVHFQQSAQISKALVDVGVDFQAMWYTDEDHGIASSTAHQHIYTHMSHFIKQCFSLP

Row | SMILES | Emax (GLP-1R) | EC50 (GLP-1R) | EC50 (human GIPR) | Emax (human GIPR) | Resistance to DPP-4-mediated degradation (recombinant DPP-4)
1 | CC[C@H](C)[C@H](NC(=O)[C@H](Cc1ccccc1)NC(=O)[C@H](CCC(=O)O)NC(=O)[C@H](CCC(N)=O)NC(=O)[C@H](C)NC(=O)[C@H](CCCNC(=N)N)NC(=O)[C@H](CCCCN)NC(=O)[C@H](C)NC(=O)[C@H](CC(=O)O)NC(=O)[C@H](CC(C)C)NC(=O)[C@H](Cc1ccc(O)cc1)NC(=O)[C@H](CCCCN)NC(=O)[C@H](CO)NC(=O)[C@H](Cc1ccc(O)cc1)NC(=O)[C@H](CC(=O)O)NC(=O)[C@H](CO)NC(=O)[C@@H](NC(=O)[C@H](Cc1ccccc1)NC(=O)[C@@H](NC(=O)CNC(=O)[C@H](Cc1c[nH]cn1)NC(=O)C(C)(C)NC(=O)[C@@H](N)Cc1c[nH]cn1)[C@@H](C)O)[C@@H](C)O)C(=O)N[C@@H](CCC(=O)O)C(=O)N[C@@H](Cc1c[nH]c2ccccc12)C(=O)N[C@@H](CC(C)C)C(=O)N[C@@H](CC(C)C)C(=O)N[C@@H](C)C(=O)NCC(=O)N[C@@H](Cc1c[nH]cn1)C(=O)N[C@@H](Cc1c[nH]cn1)C(=O)N[C@@H](Cc1c[nH]cn1)C(=O)N[C@@H](Cc1c[nH]cn1)C(=O)N[C@@H](Cc1c[nH]cn1)C(=O)N1CCC[C@H]1C(=O)N[C@@H](CO)C(=O)N[C@@H](Cc1c[nH]c2ccccc12)C(=O)O [SRB103H] (H-H[Aib]HGTFTSDYSKYLDAKRAQEFIEWLLAGHHHHHPSW-OH) | 100% | 398 nM | 25.1 nM | 101 ± 5% | highly resistant to DPP-4-mediated degradation
2 | CC[C@H](C)[C@H](NC(=O)[C@H](Cc1ccccc1)NC(=O)[C@H](CCC(=O)O)NC(=O)[C@H](CCC(N)=O)NC(=O)[C@H](C)NC(=O)[C@H](CCCNC(=N)N)NC(=O)[C@H](CCCCN)NC(=O)[C@H](C)NC(=O)[C@H](CC(=O)O)NC(=O)[C@H](CC(C)C)NC(=O)[C@H](Cc1ccc(O)cc1)NC(=O)[C@H](CCCCN)NC(=O)[C@H](CO)NC(=O)[C@H](Cc1ccc(O)cc1)NC(=O)[C@H](CC(=O)O)NC(=O)[C@H](CO)NC(=O)[C@@H](NC(=O)[C@H](Cc1ccccc1)NC(=O)[C@@H](NC(=O)CNC(=O)[C@H](CCC(N)=O)NC(=O)C(C)(C)NC(=O)[C@@H](N)Cc1c[nH]cn1)[C@@H](C)O)[C@@H](C)O)C(=O)N[C@@H](CCC(=O)O)C(=O)N[C@@H](Cc1c[nH]c2ccccc12)C(=O)N[C@@H](CC(C)C)C(=O)N[C@@H](CC(C)C)C(=O)N[C@@H](C)C(=O)NCC(=O)N[C@@H](Cc1c[nH]cn1)C(=O)N[C@@H](Cc1c[nH]cn1)C(=O)N[C@@H](Cc1c[nH]cn1)C(=O)N[C@@H](Cc1c[nH]cn1)C(=O)N[C@@H](Cc1c[nH]cn1)C(=O)N1CCC[C@H]1C(=O)N[C@@H](CO)C(=O)N[C@@H](Cc1c[nH]c2ccccc12)C(=O)O [SRB103Q] (H-H[Aib]QGTFTSDYSKYLDAKRAQEFIEWLLAGHHHHHPSW-OH) | 60 ± 2% | 200 nM | 100 nM | 92 ± 9% | highly resistant to DPP-4-mediated degradation
